Source: PubChem BioAssay (NCI)
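GI50: concentration for 50% inhibition of growth. Definition used: TGI = concentration required for complete inhibition of growth.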

What was measured:
Assay in all cases: growth of human tumour cells (NCI), 384-well format
TK-10 renal = test system: TK-10 renal
HCC-2998 colon = test system: HCC-2998 colon
SW-620 colon = test system: SW-620 colon
A498 renal = test system: A498 renal
NCI-H23 lung = test system: NCI-H23 lung
UO-31 renal = test system: UO-31 renal
NCI-H522 lung = test system: NCI-H522 lung
MCF7 breast = test system: MCF7 breast
K-562 leukemia = test system: K-562 leukemia
U251 glioblastoma = test system: U251 glioblastoma
UACC-257 melanoma = test system: UACC-257 melanoma
SF-268 CNS = test system: SF-268 CNS
SK-OV-3 ovarian = test system: SK-OV-3 ovarian
IGROV1 ovarian = test system: IGROV1 ovarian
DU-145 prostate = test system: DU-145 prostate
HCT-116 colon = test system: HCT-116 colon
LOX IMVI melanoma = test system: LOX IMVI melanoma
A549 NSCLC = test system: A549 NSCLC
SK-MEL-5 melanoma = test system: SK-MEL-5 melanoma
OVCAR-4 ovarian = test system: OVCAR-4 ovarian
SNB-19 CNS = test system: SNB-19 CNS
HS 578T breast = test system: HS 578T breast
OVCAR-5 ovarian = test system: OVCAR-5 ovarian
HOP-92 NSCLC = test system: HOP-92 NSCLC
ACHN renal = test system: ACHN renal
COLO 205 colon = test system: COLO 205 colon
T-47D breast = test system: T-47D breast
OVCAR-3 ovarian = test system: OVCAR-3 ovarian
HT29 colon = test system: HT29 colon
HCT-15 colon = test system: HCT-15 colon
786-0 renal = test system: 786-0 renal
RXF 393 renal = test system: RXF 393 renal
M14 melanoma = test system: M14 melanoma
CAKI-1 renal = test system: CAKI-1 renal
UACC-62 melanoma = test system: UACC-62 melanoma
MOLT-4 leukemia = test system: MOLT-4 leukemia
KM12 colon = test system: KM12 colon
EKVX NSCLC = test system: EKVX NSCLC
HOP-62 NSCLC = test system: HOP-62 NSCLC
SN12C renal = test system: SN12C renal
NCI-H322M lung = test system: NCI-H322M lung
NCI/ADR-RES ovarian = test system: NCI/ADR-RES ovarian
NCI-H460 NSCLC = test system: NCI-H460 NSCLC
OVCAR-8 ovarian = test system: OVCAR-8 ovarian
SNB-75 CNS = test system: SNB-75 CNS
HL-60(TB) leukemia = test system: HL-60(TB) leukemia
MDA-MB-231 breast = test system: MDA-MB-231 breast
CCRF-CEM leukemia = test system: CCRF-CEM leukemia
SK-MEL-28 melanoma = test system: SK-MEL-28 melanoma
RPMI-8226 leukemia = test system: RPMI-8226 leukemia
MALME-3M melanoma = test system: MALME-3M melanoma
MDA-MB-468 breast = test system: MDA-MB-468 breast
MDA-MB-435 melanoma = test system: MDA-MB-435 melanoma
NCI-H226 lung = test system: NCI-H226 lung
SF-539 CNS = test system: SF-539 CNS
BT-549 breast = test system: BT-549 breast

CCn1c(CO)nn(-c2cc(O[C@@H](C)C(F)(F)F)c(C(=O)Nc3c(F)cccc3Cl)cc2F)c1=O
GI50 (TK-10 renal): < 0.01 µM
TGI (TK-10 renal): > 100 µM
GI50 (HCC-2998 colon): 18.6 µM
TGI (HCC-2998 colon): > 100 µM
GI50 (SW-620 colon): < 0.01 µM
TGI (SW-620 colon): 20.4 µM
GI50 (A498 renal): 13.5 µM
TGI (A498 renal): > 100 µM
GI50 (NCI-H23 lung): < 0.01 µM
TGI (NCI-H23 lung): > 100 µM
GI50 (UO-31 renal): < 0.01 µM
TGI (UO-31 renal): 28.8 µM
GI50 (NCI-H522 lung): < 0.01 µM
TGI (NCI-H522 lung): 84.5 µM
GI50 (MCF7 breast): < 0.01 µM
TGI (MCF7 breast): 91.3 µM
GI50 (K-562 leukemia): < 0.01 µM
TGI (K-562 leukemia): > 100 µM
GI50 (U251 glioblastoma): < 0.01 µM
TGI (U251 glioblastoma): 30.7 µM
GI50 (UACC-257 melanoma): 11.2 µM
TGI (UACC-257 melanoma): > 100 µM
GI50 (SF-268 CNS): < 0.01 µM
TGI (SF-268 CNS): < 0.01 µM
GI50 (SK-OV-3 ovarian): 22.7 µM
TGI (SK-OV-3 ovarian): > 100 µM
GI50 (IGROV1 ovarian): 2.22 µM
TGI (IGROV1 ovarian): > 100 µM
GI50 (DU-145 prostate): < 0.01 µM
TGI (DU-145 prostate): > 100 µM
GI50 (HCT-116 colon): < 0.01 µM
TGI (HCT-116 colon): > 100 µM
GI50 (LOX IMVI melanoma): < 0.01 µM
TGI (LOX IMVI melanoma): < 0.01 µM
GI50 (A549 NSCLC): < 0.01 µM
TGI (A549 NSCLC): > 100 µM
GI50 (SK-MEL-5 melanoma): < 0.01 µM
TGI (SK-MEL-5 melanoma): 18.8 µM
GI50 (OVCAR-4 ovarian): 54.9 µM
TGI (OVCAR-4 ovarian): > 100 µM
GI50 (SNB-19 CNS): 17.5 µM
TGI (SNB-19 CNS): > 100 µM
GI50 (HS 578T breast): 15.2 µM
TGI (HS 578T breast): > 100 µM
GI50 (OVCAR-5 ovarian): < 0.01 µM
TGI (OVCAR-5 ovarian): > 100 µM
GI50 (HOP-92 NSCLC): < 0.01 µM
TGI (HOP-92 NSCLC): > 100 µM
GI50 (ACHN renal): < 0.01 µM
TGI (ACHN renal): > 100 µM
GI50 (COLO 205 colon): < 0.01 µM
TGI (COLO 205 colon): > 100 µM
GI50 (T-47D breast): 7.65 µM
TGI (T-47D breast): 58.2 µM
GI50 (OVCAR-3 ovarian): 20.8 µM
TGI (OVCAR-3 ovarian): > 100 µM
GI50 (HT29 colon): < 0.01 µM
TGI (HT29 colon): 62.6 µM
GI50 (HCT-15 colon): < 0.01 µM
TGI (HCT-15 colon): > 100 µM
GI50 ([…]-0 renal): < 0.01 µM
TGI (786-0 renal): 32.5 µM
GI50 (RXF 393 renal): < 0.01 µM
TGI (RXF 393 renal): 12.3 µM
GI50 (M14 melanoma): < 0.01 µM
TGI (M14 melanoma): 62.7 µM
GI50 (CAKI-1 renal): < 0.01 µM
TGI (CAKI-1 renal): > 100 µM
GI50 (UACC-62 melanoma): < 0.01 µM
TGI (UACC-62 melanoma): 70.2 µM
GI50 (MOLT-4 leukemia): < 0.01 µM
TGI (MOLT-4 leukemia): < 0.01 µM
GI50 (KM12 colon): < 0.01 µM
TGI (KM12 colon): > 100 µM
GI50 (EKVX NSCLC): 63.4 µM
TGI (EKVX NSCLC): > 100 µM
GI50 (HOP-62 NSCLC): 6.85 µM
TGI (HOP-62 NSCLC): > 100 µM
GI50 (SN12C renal): < 0.01 µM
TGI (SN12C renal): > 100 µM
GI50 (NCI-H322M lung): 9.92 µM
TGI (NCI-H322M lung): > 100 µM
GI50 (NCI/ADR-RES ovarian): < 0.01 µM
TGI (NCI/ADR-RES ovarian): 88 µM
GI50 (NCI-H460 NSCLC): < 0.01 µM
TGI (NCI-H460 NSCLC): 14.7 µM
GI50 (OVCAR-8 ovarian): < 0.01 µM
TGI (OVCAR-8 ovarian): > 100 µM
GI50 (SNB-75 CNS): 13.4 µM
TGI (SNB-75 CNS): 79.2 µM
GI50 (HL-60(TB) leukemia): < 0.01 µM
TGI (HL-60(TB) leukemia): < 0.01 µM
GI50 (MDA-MB-231 breast): < 0.01 µM
TGI (MDA-MB-231 breast): > 100 µM
GI50 (CCRF-CEM leukemia): < 0.01 µM
TGI (CCRF-CEM leukemia): 43 µM
GI50 (SK-MEL-28 melanoma): < 0.01 µM
TGI (SK-MEL-28 melanoma): 19.9 µM
GI50 (RPMI-8226 leukemia): < 0.01 µM
TGI (RPMI-8226 leukemia): < 0.01 µM
GI50 (MALME-3M melanoma): < 0.01 µM
TGI (MALME-3M melanoma): > 100 µM
GI50 (MDA-MB-468 breast): < 0.01 µM
TGI (MDA-MB-468 breast): 22.6 µM
GI50 (MDA-MB-435 melanoma): < 0.01 µM
TGI (MDA-MB-435 melanoma): > 100 µM
GI50 (NCI-H226 lung): 17.6 µM
TGI (NCI-H226 lung): > 100 µM
GI50 (SF-539 CNS): 16.1 µM
TGI (SF-539 CNS): > 100 µM
GI50 (BT-549 breast): < 0.01 µM
TGI (BT-549 breast): > 100 µM
